Test results taken from patent US10444149B2, “Fluorescent compounds as sensing agents” (OHIO NORTHERN UNIVERSITY, priority 2016, dated 2019).
Marks after values point to notes of the source that are not given here.

Legend:
[1] = Peak absorption wavelength, peak emission wavelength and fluorescent quantum yield; type: physicochemical
Excerpt: Table 2 provides a peak absorption wavelength (λabs maximum), peak emission wavelength (λem maximum), a fluorescent quantum yield (ΦF), and a synthesis yield for the various compounds. The synthesis yield is based on the synthetic pathway illustrated in FIG. 1.

[2] = Emission spectrum on exposure to varying amounts of (NH4)2Fe(SO4)2.6H2O; details: methanol; FIG. 6
Experimental: (§1) Compound 11 was dissolved in methanol and then exposed to varying amounts of FeCl3 (i.e., Fe^3+) or (NH4)2Fe(SO4)2.6H2O (i.e., Fe^2+). […] Therefore, Compound 11 may be used to detect Fe^3+ while in the presence of Fe^2+.

[3] = Emission spectrum on exposure to varying amounts of FeCl3; details: for total red-shift in peak emission wavelength: at saturation with Fe^3+
Experimental: Two substituted chromones (Compound 11 and Compound 20) were dissolved in methanol and exposed to varying amounts of FeCl3 (i.e., Fe^3+). FIG. 4 illustrates the shift in emission spectrum of Compound 11 with increasing amounts of Fe^3+ ions. With about 10 equivalents of Fe^3+ ions, the shift in emission spectrum is saturated, with a total of about a 30 nm red-shift in peak emission wavelength. FIG. 5 illustrates the shift in emission spectrum of Compound 20 with increasing amounts of Fe^3+ ions. With about 10 equivalents of Fe^3+ ions, the shift in emission spectrum is saturated, with a total of about a 50 nm red-shift in peak emission wavelength.
Compound 11 was dissolved in various solvents and then exposed to varying amounts of FeCl3 (i.e., Fe^3+).
as §1

[4] = Emission spectrum on exposure to varying amounts of lead nitrate
Experimental: Compound 20 was dissolved in methanol and then exposed to varying amounts of […] (i.e., Pb^2+). […] Therefore, a kit, method, system, or the like may utilize a specific solvent system for detection of lead or other Ions. Alternatively, and especially where the metal ion concentration is unknown, a kit, method, system, or the like may utilize a series of solvent systems in parallel to determine a concentration of metal ions.
A 5 μM sample of Compound 25 in 3:1 tetrahydrofuran:methanol or 2:1 tetrahydrofuran:methanol was prepared and exposed to varying amounts of Pb(NO3)2 (i.e., Pb^2+) dissolved in deionized water.

[5] = Detection of lead in methanol extract of soil
Experimental: A lead-free soil sample was collected, placed into a Buchner funnel, and soaked with 1 mL of 0.15 M Pb(NO3)2 in water to introduce lead to the soil. As a control sample, the same was performed with the lead-free soil without exposure to Pb^2+. After soaking, the soil samples were washed with 50 mL of methanol. A sample from each filtrate was diluted in 3:1 tetrahydrofuran:methanol and exposed to Compound 25. […] This example illustrates that the substituted chromones described herein may be useful in detecting ions from soil extracts.

[6] = Visual detection limit, blue to green fluorescence change; details: 5 μM compound in 3:1 tetrahydrofuran:methanol; Pb(NO3)2 in deionized water
Experimental: The detection limit Pb(NO3)2 (i.e., Pb^2+) for Compound 25 in 3:1 tetrahydrofuran:methanol was tested by exposing samples of 5 μM Compound 25 to ever decreasing concentrations of Pb(NO3)2 dissolved in deionized water.
A 40 mM solution of Pb(NO3)2 (i.e., Pb^2+) was prepared in tap water and then diluted with 3:1 tetrahydrofuran:methanol to a lead concentration of 133 μM. The resultant sample was added to solutions of 5 μM sample of Compound 25 in 3:1 tetrahydrofuran:methanol. […] This example illustrates that the lead detection can be performed using tap water, which includes a variety of other ions.

[7] = Extraction of lead from water with octanol and triethylamine; details: 3 mM Pb(NO3)2, 1 equivalent triethylamine
Experimental: A 3 mM Pb(NO3)2 sample was prepared in deionized water and Compound 25 was added to give a green fluorescence. The lead was then extracted from the water using either 1-octanol or 2-octanol each with 1 equivalent (relative to Compound 25) of triethylamine, which turned the octanol portion green. After washing thrice with 1-octanol, 99% of the Pb^2+ had been extracted from the water. After washing twice with 2-octanol, 83% of the Pb^2+ had been extracted from the water.

[8] = Visual ion selectivity test, excited at 365 nm; details: 3:1 tetrahydrofuran:methanol
Experimental: Compound 25 was dissolved in 3:1 tetrahydrofuran:methanol and then exposed to varying amounts of Zn/SO4 (i.e., Zn^2+), (NH4)2Fe(SO4)2.6H2O (i.e., Fe^2+), Fe2O3 (i.e., Fe^3+), CuSO4 (i.e., Cu^2+), or Pb(NO3)2 (i.e., Pb^2+) each in deionized water. Upon visual inspection when excited at 365 nm, the sample exposed to Pb^2+ turned green while all other samples remained blue.

[9] = 5 μM compound, 3:1 or 2:1 tetrahydrofuran:methanol, excitation 370 nm

With `COC(=O)C(C)(C)C1Oc2ccc(OC)cc2C(=O)/C1=C\O` (stereo not shown) [Compound 11, (Z)-methyl-2-(3-(hydroxymethylene)-6-methoxy-4-oxochroman-2-yl)-2-methylpropanoate] the ΦF ([1]; solvent dichloromethane) was 20* %, the λabs maximum ([1]; solvent dichloromethane) was 383 nm and the λem maximum ([1]; solvent dichloromethane) was 482 nm. The “intensity change of peak emission with increasing metal ion concentration” value [2] was “intensity decrease”, the “shift of peak emission wavelength” value [2] was “does not exhibit appreciable shift” and the “red-shift in peak emission wavelength” value ([3]; 1:1 methanol:water as solvent) was “still exhibits a red-shift in peak emission wavelength”. For the same compound, the “amount of Fe^3+ ions at which the shift in emission spectrum is saturated” value ([3]; methanol) was “about 10 equivalents”, the “intensity change of peak emission with increasing metal ion concentration” value ([3]; methanol, FIG. 4) was “intensity decrease” and the “shift of peak emission wavelength” value ([3]; methanol, FIG. 4) was “significant red-shift”. The “total red-shift in peak emission wavelength” value ([3]; methanol) was roughly 30 nm, the “red-shift in peak emission wavelength” value ([3]; polar aprotic solvents: tetrahydrofuran, acetonitrile, acetone) was “did not exhibit an appreciable red-shift” and the “red-shift in peak emission wavelength” value ([3]; polar protic solvents: water, methanol, mixtures thereof) was “exhibited an appreciable red-shift”.
In the case of `CCc1ccc2c(c1)C(=O)/C(=C\NS(=O)(=O)c1ccc(C)cc1)C(C(C)(C)C(=O)OC)O2` (stereo not shown) [Compound 20, (Z)-methyl 2-(6-ethyl-3-((4-methylphenylsulfonamido)methy-lene)-4-oxochroman-2-yl)-2-methylpropanoate], the ΦF ([1]; solvent acetonitrile) is reported as 16** %, the λabs maximum ([1]; solvent acetonitrile) is reported as 369 nm and the λem maximum ([1]; solvent acetonitrile) is reported as 496 nm. For the same compound, the ΦF ([1]; solvent cyclohexane) was 30*** %, the λabs maximum ([1]; solvent cyclohexane) was 364 nm and the λem maximum ([1]; solvent cyclohexane) was 481 nm. For the same compound, the ΦF ([1]; solvent dichloromethane) was 73* %, the λabs maximum ([1]; solvent dichloromethane) was 370 nm and the λem maximum ([1]; solvent dichloromethane) was 490 nm. For the same compound, the “amount of Pb^2+ at max shift in peak emission wavelength” value ([4]; 1:1 tetrahydrofuran:methanol) was “about 5 equivalents”, the “amount of Pb^2+ at max shift in peak emission wavelength” value ([4]; 3:1 tetrahydrofuran:methanol) was “about 3 equivalents” and the “shift in peak emission wavelength” value ([4]; THF alone) was “no appreciable shift in peak emission wavelength”. For the same compound, the “amount of Pb^2+ at which the shift in peak emission wavelength maxes out” value ([4]; methanol) was 10 equivalents, the “shift in peak emission wavelength at 1 equivalent Pb^2+” value ([4]; methanol) was “no appreciable shift” and the “shift in peak emission wavelength at 1 equivalent Pb^2+” value ([4]; mixed tetrahydrofuran/methanol) was “appreciable shift”. For the same compound, the “red-shift in peak emission wavelength” value ([3]; 1:1 methanol:water as solvent) was “does not”, the “amount of Fe^3+ ions at which the shift in emission spectrum is saturated” value ([3]; methanol) was “about 10 equivalents” and the “total red-shift in peak emission wavelength” value ([3]; methanol) was roughly 50 nm.
In the case of `COC(=O)C(C)(C)C1Oc2ccc(C)cc2C(=O)/C1=C\NS(=O)(=O)c1ccc(OC)cc1` (stereo not shown) [Compound 24, (Z)methyl-2-(3-(((4-methoxyphenyl)sulfonamido)methy-lene)-6-methyl-4-oxochroman-2-yl)-2-methylpropanoate], the ΦF ([1]; solvent dichloromethane) is reported as 72* %, the λabs maximum ([1]; solvent dichloromethane) is reported as 367 nm and the λem maximum ([1]; solvent dichloromethane) is reported as 492 nm.
For `COC(=O)C(C)(C)C1Oc2ccc(OC)cc2C(=O)/C1=C\NS(=O)(=O)c1ccc(OC)cc1` (stereo not shown) [Compound 25, (Z)methyl-2-(6-methoxy-3-(((4-methoxyphenyl)sulfonamido)methy-lene)-4-oxochroman-2-yl)-2-methylpropanoate], the “color change with soil extract” value ([5]; extract from soil exposed to Pb^2+, diluted in 3:1 tetrahydrofuran:methanol) was “color change from blue to green”, the “color change with soil extract” value ([5]; extract from soil not exposed to Pb^2+, same dilution) was “no color change” and the ΦF ([1]; solvent dichloromethane) was 69* %. The λabs maximum ([1]; solvent dichloromethane) was 392 nm, the λem maximum ([1]; solvent dichloromethane) was 527 nm and the “change of peak emission in the presence of Pb^2+” value [4, 9] was “red-shift and intensity decrease”. For the same compound, the “visual change of fluorescence colour” value [4, 9] was “blue to green”, the “speed of the color change” value [6] was “almost instantaneous” and the “Pb^2+ extracted from the water” value ([7]; washing thrice with 1-octanol) was 99%. For the same compound, the “Pb^2+ extracted from the water” value ([7]; washing twice with 2-octanol) was 83%, the “fluorescence colour of sample exposed to Cu^2+” value [8] was “remained blue” and the “fluorescence colour of sample exposed to Fe^2+” value [8] was “remained blue”. The “fluorescence colour of sample exposed to Fe^3+” value [8] was “remained blue”, the “fluorescence colour of sample exposed to Zn^2+” value [8] was “remained blue” and the “selectivity among heavy metal ions” value ([8]; Zn^2+, Fe^2+, Fe^3+, Cu^2+, Pb^2+ compared) was “selectivity for Pb^2+ ions over other heavy metal ions”. For the same compound, the “fluorescence colour of sample exposed to Pb^2+” value ([8]; excited at 365 nm) was “turned green”.
With `COC(=O)CC1Oc2ccc(OC)cc2C(=O)/C1=C\NS(=O)(=O)c1ccc(OC)cc1` (stereo not shown) [Compound 26, (Z)-methyl-2-(6-methoxy-3-(((4-methoxyphenyl)sulfonamido)methy-lene)-4-oxochroman-2-yl)acetate] the ΦF ([1]; solvent dichloromethane) was 67* %, the λabs maximum ([1]; solvent dichloromethane) was 386 nm and the λem maximum ([1]; solvent dichloromethane) was 529 nm.
